Measured values from paper PMC2990584, “Phase Ib study of CP-868,596, a PDGFR inhibitor, combined with docetaxel with or without axitinib, a VEGFR inhibitor” (British Journal of Cancer, 2010).
Blank lines part the entries; values can stand above or below the compound they belong to.

Tests used:
[1] = Pharmacokinetics in patients (HPLC/tandem MS, non-compartmental); assay type: in vivo, human
Protocol: In DL 4, sampling was conducted on day 8 (CP-868,596, axitinib, and docetaxel) and day 9 (CP-868,596 and axitinib) of cycle 1: samples were collected at 0 h (predose) and 1, 1.75, 3, 4.5, and 6.5 h post-dose on day 8 and at 0 h (predose) on day 9 for CP-868,596 and axitinib. Docetaxel concentrations were assessed at 1 (end of infusion), 1.75, and 6.5 h post-dose on day 8. Concentrations of CP-868,596, docetaxel, and axitinib were determined using validated HPLC/tandem mass spectrometry (HPLC/TMS) methods. Analytes were detected using an Applied-Biosystem Sciex API 3000/4000 LC/TMS system (MDI SCIEX, Concord, ON, Canada) operating in positive ion Electrospray mode. Non-compartmental pharmacokinetic analysis was performed using WinNonlin, version 3.2 (Pharsight, Mountain View, CA, USA). […] Tmax, half-life (t1/2), AUC0–48, and AUC0–infinity. […] Descriptive statistics were used when analysing patient demographics, safety, and tumour response data. Paired t-test was used to assess the impact of co-administration of docetaxel on CP-868,596 pharmacokinetics.

PDGFR signalling pathway = assay: Blood biomarkers of the PDGFR signalling pathway (SDS-PAGE, LI-COR); assay type: in vivo, human
Protocol: Blood samples for the evaluation of biomarkers potentially related to the PDGFR signalling pathway (serum Src homology phosphatase (SHP)2, phopho(p)-SHP2, pAKT, and pS6) were collected within 4 days of baseline and on day 14 in each cohort. Protein levels were analysed using gel electrophoresis (SDS–PAGE) and the LI-COR immunodetection system with appropriate antibodies.

[2] = system: patients with advanced cancers; parameters: method as in Lewis et al, 2009; conditions: ref Lewis et al, 2009, cited from earlier work
xenograft models = system: xenograft models; parameters: method as in Whalen et al, 2005; conditions: ref Whalen et al, 2005; cited from earlier work
advanced solid tumours = assay: Antitumour activity (RECIST, FDG-PET, CT); assay type: in vivo, human; conditions: single patient, metastatic epithelioid sarcoma
Protocol: Radiological assessments were conducted at screening and within 7 days prior to cycle 1 docetaxel dose for DLs 1–3, and at screening and cycle 2 day 1 for DL 4. Subsequent assessments were every other cycle for all DLs.

tumour vasculature = assay: DCE-MRI tumoural analysis; assay type: in vivo, human; conditions: DL 2, eight patients
Protocol: The DCE time course in the tumour was analysed on a pixel-by-pixel basis by fitting the data to the Kety equation and by integrating the area under the initial (i.e. the first 90 s) uptake curve. The contrast-agent concentration time course in plasma and tissue was inferred from the change in T1-weighted signal as a function of time. The Kety equation fitted the tissue contrast-agent time course to a two-compartment model: […] Ct are plasma and tissue concentration, respectively, K^trans is volume endothelial transfer constant between plasma and the extracellular extravascular space (EES), and Ve is fractional EES volume ([Ashton et al, 2008]).

PDGFR-β tyrosine kinase = molecular target: PDGFR-β tyrosine kinase; parameters: method as in Lewis et al, 2009; conditions: ref Lewis et al, 2009, cited from earlier work
[3] = system: patients with advanced solid tumors; parameters: method as in Rugo et al, 2005; conditions: ref Rugo et al, 2005; cited from earlier work
[4] = system: PDGFR-β overexpressing mesothelioma cell lines; parameters: method as in Wilmink and Richel, 2008; conditions: in vitro; ref Wilmink and Richel, 2008; cited from earlier work

pharmacokinetic parameters and plasma concentration profiles on co-administration ([1]; co-administration of docetaxel or docetaxel plus axitinib): unaffected
impact of co-administration of docetaxel on Cmax and AUC0–tau ([1]; human, in vivo): no significant impact
Structure (SMILES): CC1(COc2ccc3c(c2)ncn3-c2ccc3cccc(N4CCC(N)CC4)c3n2)COC1 [CP-868,596]
SHP and pSHP relative to baseline (PDGFR signalling pathway; day 14, DL 1 and DL 2, n=10): unchanged
levels of pS6 in peripheral blood mononuclear cells relative to baseline (PDGFR signalling pathway; day 14, DL 1 and DL 2, n=11, P=0.021): significantly decreased
levels of pAKT relative to baseline (PDGFR signalling pathway; day 14, DL 1 and DL 2, n=12): non-significant increase
most common toxicities [2]: nausea, vomiting, diarrhoea, and transaminitis
recommended dosage ([2]; single agent, with food): 100 mg twice daily (BID)
Dose-limiting toxicities (DLTs) identified ([2]; single agent): haematuria, transaminitis, insomnia, and nausea/vomiting
cytotoxicity of docetaxel and gemcitabine on combination (xenograft models): increased
FDG-PET response (advanced solid tumours): partial metabolic response
perfused AUC, median percentage change at day 14 relative to baseline (tumour vasculature): −4.4%
perfused K^trans, median percentage change at day 14 relative to baseline (tumour vasculature): 12.7%
tumour volume, median percentage change at day 14 relative to baseline (tumour vasculature): 14.3
vascularised volume, median percentage change at day 14 relative to baseline (tumour vasculature): 16.6
IC50 (PDGFR-β tyrosine kinase; PDGFR-β tyrosine kinase): 0.4 ng ml^–1
selectivity for PDGFR vs other related kinases (PDGFR-β tyrosine kinase): 50–100 fold

Structure (SMILES): CNC(=O)c1ccccc1Sc1ccc2c(/C=C/c3ccccn3)n[nH]c2c1 [axitinib]
main toxicities [3]: fatigue, nausea, diarrhoea, and hypertension

Structure (SMILES): Cc1ccc(NC(=O)c2ccc(CN3CCN(C)CC3)cc2)cc1Nc1nccc(-c2cccnc2)n1 [imatinib]
effect on cells [4]: induced cytotoxicity and apoptosis
